Assay results from PubChem BioAssay AID248 (DTP/NCI, 2004).
Values joined by “and” are separate entries in the source; they are usually repeats but may differ in a detail not shown here. Equal entries are not always repeated. Inconclusive results and toxic doses are left out. Cut-off read from the data, not from the text of the source: active = T/C of 150% or more; inactive = T/C below 125%.

Test system: L1210 leukemia ip in BDF1 mice, survival T/C
Assay: NCI In Vivo Anticancer Drug Screen. Data for tumor model L1210 Leukemia (intraperitoneal) in B6D2F1 (BDF1) mice
Details: higher = longer survival
How it was run: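 Read-out is survival time, reported as the treated-group measurement over the vehicle-control measurement.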

[1] = endpoint: mean survival time, dose: 50.0 mg/kg/injection, schedule: Q01DX009 (ip), vehicle: saline with Tween-80
[2] = endpoint: mean survival time, dose: 100.0 mg/kg/injection, schedule: Q01DX009 (ip), vehicle: saline with Tween-80
[3] = endpoint: mean survival time, dose: 200.0 mg/kg/injection, schedule: Q01DX009 (ip), vehicle: saline with Tween-80

Measured: T/C

C[C@]12C=CC(=O)C=C1CC[C@@H]1[C@@H]2C(=O)C[C@@]2(C)[C@H]1CC[C@]2(O)C(=O)CO
inactive: endpoint: mean survival time, dose: 0.25 mg/kg/injection, schedule: Q01DX009 (ip), vehicle: water 99 % of control | endpoint: mean survival time, dose: 0.5 mg/kg/injection, schedule: Q01DX009 (ip), vehicle: water 103 % of control | endpoint: mean survival time, dose: 1.0 mg/kg/injection, schedule: Q01DX009 (ip), vehicle: water 96 % of control and 97 % of control | endpoint: mean survival time, dose: 2.0 mg/kg/injection, schedule: Q01DX009 (ip), vehicle: water 99 % of control and 101 % of control | endpoint: mean survival time, dose: 2.5 mg/kg/injection, schedule: Q01DX009 (ip), vehicle: water 101 % of control | endpoint: mean survival time, dose: 5.0 mg/kg/injection, schedule: Q01DX009 (ip), vehicle: water 104 % of control | endpoint: mean survival time, dose: 6.25 mg/kg/injection, schedule: Q01DX014 (sc), vehicle: steriod suspending solution 103 % of control and 104 % of control | endpoint: mean survival time, dose: 12.5 mg/kg/injection, schedule: Q01DX014 (sc), vehicle: steriod suspending solution 100 % of control and 109 % of control | endpoint: mean survival time, dose: 25.0 mg/kg/injection, schedule: Q01DX014 (sc), vehicle: steriod suspending solution 103 % of control and 105 % of control | endpoint: mean survival time, dose: 25.0 mg/kg/injection, schedule: Q01DX Z (sc), vehicle: steriod suspending solution 97 % of control and 102 % of control and 108 % of control | [1] 102 % of control | endpoint: mean survival time, dose: 50.0 mg/kg/injection, schedule: Q01DX Z (sc), vehicle: steriod suspending solution 100 % of control (2×) and 112 % of control | endpoint: mean survival time, dose: 100.0 mg/kg/injection, schedule: Q01DX009 (ip), vehicle: Klucel (hydroxypropylcellulose) (HPC) 107 % of control | [2] 97 % of control | endpoint: mean survival time, dose: 100.0 mg/kg/injection, schedule: Q01DX009 (ip), vehicle: saline 100 % of control | endpoint: mean survival time, dose: 100.0 mg/kg/injection, schedule: Q01DX009 (ip), vehicle: steriod suspending solution 104 % of control | endpoint: mean survival time, dose: 100.0 mg/kg/injection, schedule: Q01DX009 (sc), vehicle: Klucel (hydroxypropylcellulose) (HPC) 91 % of control | endpoint: mean survival time, dose: 100.0 mg/kg/injection, schedule: Q01DX009 (sc), vehicle: saline 97 % of control | endpoint: mean survival time, dose: 100.0 mg/kg/injection, schedule: Q01DX009 (sc), vehicle: steriod suspending solution 100 % of control | endpoint: mean survival time, dose: 100.0 mg/kg/injection, schedule: Q01DX Z (sc), vehicle: steriod suspending solution 98 % of control and 101 % of control | endpoint: mean survival time, dose: 100.0 mg/kg/injection, schedule: Q04DX003 (ip), vehicle: saline with Tween-80 106 % of control | endpoint: mean survival time, dose: 120.0 mg/kg/injection, schedule: Q01DX001 (sc), vehicle: steriod suspending solution 106 % of control | endpoint: mean survival time, dose: 180.0 mg/kg/injection, schedule: Q01DX001 (sc), vehicle: steriod suspending solution 107 % of control | endpoint: mean survival time, dose: 200.0 mg/kg/injection, schedule: Q01DX009 (ip), vehicle: Klucel (hydroxypropylcellulose) (HPC) 100 % of control | [3] 102 % of control | endpoint: mean survival time, dose: 200.0 mg/kg/injection, schedule: Q01DX009 (ip), vehicle: saline 104 % of control | endpoint: mean survival time, dose: 200.0 mg/kg/injection, schedule: Q01DX009 (ip), vehicle: steriod suspending solution 104 % of control | endpoint: mean survival time, dose: 200.0 mg/kg/injection, schedule: Q01DX009 (sc), vehicle: Klucel (hydroxypropylcellulose) (HPC) 110 % of control | endpoint: mean survival time, dose: 200.0 mg/kg/injection, schedule: Q01DX009 (sc), vehicle: saline 105 % of control | endpoint: mean survival time, dose: 200.0 mg/kg/injection, schedule: Q01DX009 (sc), vehicle: steriod suspending solution 102 % of control | endpoint: mean survival time, dose: 200.0 mg/kg/injection, schedule: Q01DX Z (sc), vehicle: steriod suspending solution 94 % of control and 96 % of control | endpoint: mean survival time, dose: 200.0 mg/kg/injection, schedule: Q04DX003 (ip), vehicle: saline with Tween-80 98 % of control | endpoint: mean survival time, dose: 240.0 mg/kg/injection, schedule: Q01DX001 (sc), vehicle: steriod suspending solution 104 % of control | endpoint: mean survival time, dose: 400.0 mg/kg/injection, schedule: Q01DX009 (ip), vehicle: Klucel (hydroxypropylcellulose) (HPC) 100 % of control | endpoint: mean survival time, dose: 400.0 mg/kg/injection, schedule: Q01DX009 (ip), vehicle: saline 101 % of control | endpoint: mean survival time, dose: 400.0 mg/kg/injection, schedule: Q01DX009 (ip), vehicle: steriod suspending solution 89 % of control | endpoint: mean survival time, dose: 400.0 mg/kg/injection, schedule: Q01DX009 (sc), vehicle: Klucel (hydroxypropylcellulose) (HPC) 97 % of control | endpoint: mean survival time, dose: 400.0 mg/kg/injection, schedule: Q01DX009 (sc), vehicle: saline 109 % of control | endpoint: mean survival time, dose: 400.0 mg/kg/injection, schedule: Q01DX009 (sc), vehicle: steriod suspending solution 96 % of control | endpoint: mean survival time, dose: 400.0 mg/kg/injection, schedule: Q01DX Z (sc), vehicle: steriod suspending solution 100 % of control | endpoint: mean survival time, dose: 400.0 mg/kg/injection, schedule: Q04DX003 (ip), vehicle: saline with Tween-80 104 % of control | endpoint: mean survival time, dose: 500.0 mg/kg/injection, schedule: Q01DX001 (ip), vehicle: water 98 % of control and 103 % of control | endpoint: mean survival time, dose: 800.0 mg/kg/injection, schedule: Q01DX009 (ip), vehicle: Klucel (hydroxypropylcellulose) (HPC) 105 % of control | endpoint: mean survival time, dose: 800.0 mg/kg/injection, schedule: Q01DX009 (ip), vehicle: saline 110 % of control | endpoint: mean survival time, dose: 800.0 mg/kg/injection, schedule: Q01DX009 (ip), vehicle: steriod suspending solution 95 % of control | endpoint: mean survival time, dose: 800.0 mg/kg/injection, schedule: Q01DX009 (sc), vehicle: Klucel (hydroxypropylcellulose) (HPC) 103 % of control | endpoint: mean survival time, dose: 800.0 mg/kg/injection, schedule: Q01DX009 (sc), vehicle: saline 104 % of control | endpoint: mean survival time, dose: 800.0 mg/kg/injection, schedule: Q01DX009 (sc), vehicle: steriod suspending solution 102 % of control | endpoint: mean survival time, dose: 1000.0 mg/kg/injection, schedule: Q01DX001 (ip), vehicle: water 97 % of control and 102 % of control | endpoint: mean survival time, dose: 2000.0 mg/kg/injection, schedule: Q01DX001 (ip), vehicle: water 96 % of control and 109 % of control | endpoint: median survival time, dose: 25.0 mg/kg/injection, schedule: Q01DX009 (ip), vehicle: water 100 % of control and 90 % of control | endpoint: median survival time, dose: 50.0 mg/kg/injection, schedule: Q01DX009 (ip), vehicle: water 95 % of control and 100 % of control | endpoint: median survival time, dose: 100.0 mg/kg/injection, schedule: Q01DX009 (ip), vehicle: water 95 % of control and 100 % of control | endpoint: median survival time, dose: 108.0 mg/kg/injection, schedule: Q01DX009 (ip), vehicle: water 100 % of control and 90 % of control | endpoint: median survival time, dose: 180.0 mg/kg/injection, schedule: Q01DX009 (ip), vehicle: water 95 % of control and 90 % of control | endpoint: median survival time, dose: 200.0 mg/kg/injection, schedule: Q01DX009 (ip), vehicle: water 95 % of control and 100 % of control | endpoint: median survival time, dose: 300.0 mg/kg/injection, schedule: Q01DX009 (ip), vehicle: water 100 % of control | endpoint: median survival time, dose: 375.0 mg/kg/injection, schedule: Q01DX001 (ip), vehicle: water 100 % of control | endpoint: median survival time, dose: 400.0 mg/kg/injection, schedule: Q01DX009 (ip), vehicle: water 95 % of control and 110 % of control | endpoint: median survival time, dose: 400.0 mg/kg/injection, schedule: Q04DX003 (ip), vehicle: saline 111 % of control | endpoint: median survival time, dose: 500.0 mg/kg/injection, schedule: Q01DX009 (ip), vehicle: water 90 % of control | endpoint: median survival time, dose: 600.0 mg/kg/injection, schedule: Q04DX003 (ip), vehicle: saline 104 % of control | endpoint: median survival time, dose: 750.0 mg/kg/injection, schedule: Q01DX001 (ip), vehicle: water 100 % of control | endpoint: median survival time, dose: 800.0 mg/kg/injection, schedule: Q01DX009 (ip), vehicle: water 100 % of control | endpoint: median survival time, dose: 833.0 mg/kg/injection, schedule: Q01DX009 (ip), vehicle: water 90 % of control | endpoint: median survival time, dose: 1388.0 mg/kg/injection, schedule: Q01DX009 (ip), vehicle: water 90 % of control | endpoint: median survival time, dose: 1500.0 mg/kg/injection, schedule: Q01DX001 (ip), vehicle: water 100 % of control | endpoint: median survival time, dose: 3000.0 mg/kg/injection, schedule: Q01DX001 (ip), vehicle: water 100 % of control and 102 % of control

ClC1=C(Cl)C(Cl)=C(Cl)C1=Cc1ccccc1
inactive: endpoint: mean survival time, dose: 3.13 mg/kg/injection, schedule: Q01DX009 (ip), vehicle: saline with Tween-80 113 % of control | endpoint: mean survival time, dose: 6.25 mg/kg/injection, schedule: Q01DX009 (ip), vehicle: saline with Tween-80 107 % of control | endpoint: mean survival time, dose: 25.0 mg/kg/injection, schedule: Q04DX002 (ip), vehicle: Klucel (hydroxypropylcellulose) (HPC) 100 % of control | endpoint: mean survival time, dose: 50.0 mg/kg/injection, schedule: Q04DX002 (ip), vehicle: Klucel (hydroxypropylcellulose) (HPC) 90 % of control

O=C(Nc1c(Oc2ccc(Cl)cc2)ccc(Cl)c1S(=O)(=O)O)Nc1c(Oc2ccc(Cl)cc2)ccc(Cl)c1S(=O)(=O)O
inactive: endpoint: mean survival time, dose: 100.0 mg/kg/injection, schedule: Q01DX001 (ip), vehicle: acetone 95 % of control | endpoint: mean survival time, dose: 100.0 mg/kg/injection, schedule: Q04DX003 (ip), vehicle: saline 95 % of control | endpoint: mean survival time, dose: 200.0 mg/kg/injection, schedule: Q04DX003 (ip), vehicle: saline 96 % of control | endpoint: mean survival time, dose: 400.0 mg/kg/injection, schedule: Q01DX001 (ip), vehicle: acetone 92 % of control

Cc1c(Cl)cccc1NC(=O)NC(=O)c1ccccc1
inactive: [1] 101 % of control | [2] 108 % of control | [3] 97 % of control
